One block for each molecule: values may come before it.
How the values were obtained:
Format in all cases: cell-based
[1] = system: P2X receptor; assay: Intracellular calcium ion concentration in cultured epidermal keratinocytes (Fluo3-AM fluorescence), P2X agonist/inhibitor; details: FIG. 2; for concentration of intracellular calcium ions in the keratinocytes: agonist solution (final concentration 10 μM) added to epidermal keratinocytes
Procedure: (a) Commercially available epidermal keratinocytes (product of Kurabo Industries Ltd.) were subjected to culture by means of a customary method by use of a KGM medium which had been prepared through the following procedure: MCDB153IK (product of Kyokuto Pharmaceutical Industrial Co., Ltd.) (10.93 g), N-2-hydroxyethylpiperazine-N′-2-ethanesulphonic acid (HEPES) (6.7 g), NaHCO3 (1.2 g), insulin (5 mg), hydrocortisone (0.5 mg), transferrin (10 mg), phosphorylethanolamine (14.1 mg), EGF (10 μg), penicillin (100 mg), and kanamycin (60 mg) were dissolved in purified water (1 L); the pH of the resultant solution was adjusted to 7.4 by use of NaOH; the resultant solution was subjected to filter sterilization; and bovine pituitary gland extract (product of Kyokuto Pharmaceutical Industrial Co., Ltd.) (55 mg) was added to the resultant solution immediately before use of the solution. On the day before measurement of calcium ions was carried out, the thus-cultured epidermal keratinocytes were inoculated into a 96-well plate (2×10^5 cells/well). On the following day, the aforementioned culture solution was removed from the well plate by use of a pipette such that the cells were not exfoliated from the wells. Subsequently, a balanced salt solution (BSS: an aqueous solution prepared by dissolving NaCl (150 mM), KCl (5 mM), CaCl2 (1.8 mM), NaH2PO4 (1.2 mM), MgCl2 (1.2 mM), D-glucose (10 mM), and HEPES (25 mM) in water, and adjusting the pH of the resultant solution to 7.4 by use of NaOH) and Fluo3-AM (product of Dainippon Pharmaceutical Co., Ltd.), which is a calcium-sensitive fluorescent dye, were added to the cultured epidermal keratinocytes (total amount of BSS and Fluo3-AM per well: […]), and incubation was carried out at 37° C. for 60 minutes, to thereby introduce the fluorescent dye into the cultured epidermal keratinocytes. […]
(§1) The fluorescence intensity was measured over time by means of a customary method by use of a fluorescence microplate reader (485 nm, 538 nm).
(§2) The concentration of intracellular calcium ions in the cells was calculated by use of the following formula. […]

[2] = target: T1, VR1 receptor (Homo sapiens, UniProt Q8NER1); assay: Intracellular calcium ion concentration in cultured epidermal keratinocytes (Fluo3-AM fluorescence), VR1 agonist/antagonist
T1 construct: epidermal keratinocytes were brought into contact with capsaicin, which is an agonist of a VR1 receptor; host or cells: cultured epidermal keratinocytes
Procedure: (§3) (a) Commercially available epidermal keratinocytes (product of Kurabo Industries Ltd.) were subjected to culture by means of a customary method by use of a KGM medium which had been prepared through the following procedure: MCDB153IK (product of Kyokuto Pharmaceutical Industrial Co., Ltd.) (10.93 g), N-2-hydroxyethylpiperazine-N′-2-ethanesulphonic acid (HEPES) (6.7 g), NaHCO3 (1.2 g), insulin (5 mg), hydrocortisone (0.5 mg), transferrin (10 mg), phosphorylethanolamine (14.1 mg), EGF (10 μg), penicillin (100 mg), and kanamycin (60 mg) were dissolved in purified water (1 L); the pH of the resultant solution was adjusted to 7.4 by use of NaOH; the resultant solution was subjected to filter sterilization; and bovine pituitary gland extract (product of Kyokuto Pharmaceutical Industrial Co., Ltd.) (55 mg) was added to the resultant solution immediately before use of the solution. On the day before measurement of calcium ions was carried out, the thus-cultured epidermal keratinocytes were inoculated into a 96-well plate (2×10^5 cells/well). […]
as §1, §2

[3] = system: epidermal keratinocytes; assay: Intracellular calcium ion concentration in epidermal keratinocytes after adding pain-producing substances; details: lactic acid present (mM range), two seconds after addition of the solution; FIG. 4
Procedure: as §3, with “solution.” for “solution. On the day before measurement of calcium ions was carried out, the thus-cultured epidermal keratinocytes were inoculated into a 96-well plate (2×10^5 cells/well).”
as §1, §2
Fmin: Fluorescence intensity of Fluo3-AM when EDTA is added and Ca^2+ is blocked (minimum fluorescence intensity)
Fmax: Fluorescence intensity of Fluo3-AM in the presence of excess Ca^2+ (breakage of cell membranes by a surfactant) (maximum fluorescence intensity) […]

T1 sequence (Q8NER1 whole entry): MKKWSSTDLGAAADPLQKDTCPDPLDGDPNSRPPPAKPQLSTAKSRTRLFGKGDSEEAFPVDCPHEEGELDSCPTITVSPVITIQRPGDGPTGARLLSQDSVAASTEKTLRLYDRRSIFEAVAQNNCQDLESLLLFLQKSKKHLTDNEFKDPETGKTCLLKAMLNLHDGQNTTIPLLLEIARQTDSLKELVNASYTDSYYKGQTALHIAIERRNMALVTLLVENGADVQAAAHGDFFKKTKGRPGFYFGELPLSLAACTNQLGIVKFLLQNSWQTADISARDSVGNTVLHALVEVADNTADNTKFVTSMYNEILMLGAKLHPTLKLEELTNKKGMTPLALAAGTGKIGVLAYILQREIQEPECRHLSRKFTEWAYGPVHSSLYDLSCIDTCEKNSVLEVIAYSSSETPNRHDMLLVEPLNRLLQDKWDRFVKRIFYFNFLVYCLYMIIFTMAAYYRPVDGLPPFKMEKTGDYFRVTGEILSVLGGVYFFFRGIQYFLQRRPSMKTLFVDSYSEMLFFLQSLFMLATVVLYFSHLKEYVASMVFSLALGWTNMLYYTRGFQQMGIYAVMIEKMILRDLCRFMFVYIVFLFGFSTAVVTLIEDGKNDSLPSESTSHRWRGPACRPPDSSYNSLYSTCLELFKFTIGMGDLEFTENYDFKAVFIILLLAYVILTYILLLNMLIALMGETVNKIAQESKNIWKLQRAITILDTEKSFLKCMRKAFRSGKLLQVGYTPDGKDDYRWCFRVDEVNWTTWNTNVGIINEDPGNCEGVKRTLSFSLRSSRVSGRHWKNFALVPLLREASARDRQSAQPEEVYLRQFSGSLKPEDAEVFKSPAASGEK

Molecule: Nc1ncnc2c1ncn2[C@@H]1O[C@H](COP(=O)(O)OP(=O)(O)OP(=O)(O)O)[C@@H](O)[C@H]1O [ATP, adenosine 5′-triphosphate]
- concentration of intracellular calcium ions in the keratinocytes [1]: significantly increased

Molecule: CC(O)C(=O)O (stereo not drawn) [lactic acid]
- concentration of intracellular calcium ions in the epidermal keratinocytes [3]: increased

Molecule: 2′,3′-o-(2,4,6-trinitrophenyl)adenosine 5′-triphosphate [TNP-ATP]
- increase in the concentration of intracellular calcium ions caused by αβ-me ATP ([1]; keratinocytes preliminarily treated with TNP-ATP (100 nM) for 10 minutes, then mixture of TNP-ATP and αβ-me ATP added): suppressed

The next lines start with the values.

- increase in the concentration of intracellular calcium ions caused by capsaicin ([2]; keratinocytes preliminarily treated with capsazepine for 10 minutes, then mixture of capsaicin and capsazepine added, FIG. 1B): suppressed
Molecule: Oc1cc2c(cc1O)CN(C(=S)NCCc1ccc(Cl)cc1)CCC2 [capsazepine]

- concentration of intracellular calcium ions in the keratinocytes [1]: significantly increased
Molecule: Nc1ncnc2c1ncn2[C@@H]1O[C@H](COP(=O)(O)CP(=O)(O)OP(=O)(O)O)[C@@H](O)[C@H]1O [αβ-me ATP, αβ-methelene ATP]

- concentration of intracellular calcium ions in the keratinocytes ([2]; capsaicin solution (final concentration 100 nM to 10 μM) added to epidermal keratinocytes, FIG. 1A): significantly increased
Molecule: COc1cc(CNC(=O)CCCC/C=C/C(C)C)ccc1O [capsaicin]
